Experimental data taken from patent US4345938A, “Herbicidal 2-haloacetanilides” (Monsanto Company, priority 1980, dated 1982).
Like-named read-outs stand apart in the source and are kept apart here.

Tests used:
[1] = system: Rice; experiment: Greenhouse transplant rice test, rice injury; type: in vivo, Rice (Bluebelle); conditions: Oryza sativa, about 3 WAT, read-out: Percent Inhibition, Rice
From the text: (§1) The test procedure used in this greenhouse test is as follows: Ray silt loam top soil containing about 0.05% by weight of krillium and sifted through a […] screen is fumigated about 5-10 days prior to use. Pots are then filled with said Ray silt loam soil to a level to allow for a 1 in. (2.54 cm) flooding depth. Rice plants (Bluebelle) of 2 to 3 weeks age are transplanted to the pots and bulbs or seeds of the test weeds also planted in the pots. The pots are then flooded and the test chemical applied to the surface of the flood water. The flood water is reduced to allow for germination of the Echinochloa crus-galli (barnyardgrass) seed and subsequently reflooded and maintained in that condition. Observations of percent inhibition using a scale of 0-100% are made about 3 weeks after transplant (WAT).
(§2) The test data in Table III for all compounds was obtained under identical test conditions. The weeds used in the tests herein have the following abbreviations in the tables: Echinochloa crus-galli (EC), Monochloria vaginalis (MV), Cyperus Serotinus (CS), Eleocharis Kuroguwai (EK) and Sagittaria trifolia (ST).

[2] = system: Monochoria vaginalis; experiment: Greenhouse transplant rice test, MV; type: in vivo; conditions: Pontederia vaginalis, about 3 WAT, read-out: Percent Inhibition, MV
From the text: as §1, §2

[3] = system: Eleocharis kuroguwai; experiment: Greenhouse transplant rice test, EK; type: in vivo; conditions: about 3 WAT, read-out: Percent Inhibition, EK
From the text: as §1, §2

[4] = system: Monochoria vaginalis; experiment: Field transplant rice test, applied 0 DAT, MV; type: in vivo; conditions: Pontederia vaginalis, 0 h, read-out: Percent Inhibition, MV; for inhibition at 375 g/ha: 0.375 Kg/Ha; for inhibition at 750 g/ha: 0.75 Kg/Ha; for inhibition at 1500 g/ha: 1.5 Kg/Ha; for inhibition at 3000 g/ha: 3.0 Kg/Ha
Experimental: as §2
(§3) In further comparative tests, a preferred compound of this invention (Example 1) was tested in the field with prior art Compounds A-D. These tests were conducted under conditions reflecting herbicide application times generally favorable to all herbicides in the test. The timing of application of herbicides to transplant rice is very important, whether, as in some instances, prior to transplanting the rice; in other instances, at the time of transplanting or else after transplanting. Application times are conventionally referred to as "days before transplant" (DBT) or "days after transplant" ("DAT"). The field test data in Table IV was obtained from a test in which the herbicides were applied at the time of transplant, i.e., "0 DAT", with observations being made weekly up to six weeks after transplant ("WAT") beginning at two weeks after transplant; for illustrative and representative purposes, only the early, middle and late period observations, i.e., 2 WAT, 4 WAT and 6 WAT, are shown in Table IV. The data in Table IV is for rates of application common to all herbicides in the test, i.e., from 3.0 kg/ha (2.67 lb/A) down to 0.375 kg/ha (0.34 lb/A). All herbicides were applied at their actual or expected use rates, i.e., as granules containing 2.5% by weight herbicide for the compound of Example 1, Compounds B, C and D and 5.0% by weight for Compound A.

[5] = system: Cyperus serotinus; experiment: Field transplant rice test, applied 0 DAT, CS; type: in vivo; conditions: 0 h, read-out: Percent Inhibition, CS; for inhibition at 375 g/ha: 0.375 Kg/Ha; for inhibition at 750 g/ha: 0.75 Kg/Ha; for inhibition at 1500 g/ha: 1.5 Kg/Ha; for inhibition at 3000 g/ha: 3.0 Kg/Ha
Experimental: as §2, §3

[6] = system: Sagittaria trifolia; experiment: Field transplant rice test, applied 0 DAT, ST; type: in vivo; conditions: 0 h, read-out: Percent Inhibition, ST; for inhibition at 375 g/ha: 0.375 Kg/Ha; for inhibition at 750 g/ha: 0.75 Kg/Ha; for inhibition at 1500 g/ha: 1.5 Kg/Ha; for inhibition at 3000 g/ha: 3.0 Kg/Ha
Experimental: as §2, §3

[7] = system: Cyperus serotinus; experiment: Field transplant rice test, applied 9 DAT, CS; type: in vivo; conditions: for inhibition at 375 g/ha / inhibition at 750 g/ha / inhibition at 1500 g/ha / inhibition at 3000 g/ha: Cyperus serotinus, 216 h, read-out: Percent Inhibition, CS; for inhibition at 375 g/ha: 0.375 Kg/Ha; for inhibition at 750 g/ha: 0.75 Kg/Ha; for inhibition at 1500 g/ha: 1.5 Kg/Ha; for inhibition at 3000 g/ha: 3.0 Kg/Ha
From the text: In the discussion of data below, occasional reference is made to herbicide application rates symbolized as "GR15 " and "GR85 "; these rates are given in kilograms per hectare (kg/ha) which are convertible into pounds per acre (lbs/A) by dividing the kg/ha rate by 1.12.
A further guide to the effectiveness of a chemical as a selective herbicide is the "selectivity factor" ("SF") for a herbicide in given crops and weeds. The selectivity factor is a measure of the relative degree of crop safety and weed injury and is expressed in terms of the GR15 /GR85 ratio, i.e., the GR15 rate for the crop divided by the GR85 rate for the weed, both rates in kg/ha (lb/A.)
as §2, §3
In Table V are presented field data showing the relative performance of the compound of Example 1 and Compounds A-D applied 9 DAT, with observations being made weekly from 3 WAT to 7 WAT; again, for illustrative and representative purposes, only the early, middle and late period observations are reported in Table V, the herbicide rates and concentrations of active ingredients the same as is shown in Table IV.

`CCCCOc1cccc(CC)c1N(C)C(=O)CCl` [Example 1, N-methyl-2'-n-butoxy-6'-ethyl-2-chloroacetanilide] was tested, and the inhibition at 280 g/ha ([1]; 0.28 Kg/Ha) was 5%, the inhibition at 560 g/ha ([1]; 0.56 Kg/Ha) was 0% and the inhibition at 1120 g/ha ([1]; 1.12 Kg/Ha) was 15%. The inhibition at 2240 g/ha ([1]; 2.24 Kg/Ha) was 20%, the inhibition at 280 g/ha ([2]; 0.28 Kg/Ha) was 100% and the inhibition at 560 g/ha ([2]; 0.56 Kg/Ha) was 100%. The inhibition at 1120 g/ha ([2]; 1.12 Kg/Ha) was 100%, the inhibition at 2240 g/ha ([2]; 2.24 Kg/Ha) was 100% and the inhibition at 280 g/ha ([3]; 0.28 Kg/Ha) was 100%. It also gave an inhibition at 560 g/ha ([3]; 0.56 Kg/Ha) of 100%, an inhibition at 1120 g/ha ([3]; 1.12 Kg/Ha) of 100% and an inhibition at 2240 g/ha ([3]; 2.24 Kg/Ha) of 100%. The inhibition at 375 g/ha ([4]; 2 WAT) was 98%, the inhibition at 375 g/ha ([4]; 4 WAT) was 100% and the inhibition at 375 g/ha ([4]; 6 WAT) was 93%. The inhibition at 750 g/ha ([4]; 2 WAT) was 100%, the inhibition at 750 g/ha ([4]; 4 WAT) was 99% and the inhibition at 750 g/ha ([4]; 6 WAT) was 97%. The inhibition at 1500 g/ha ([4]; 2 WAT) was 100%, the inhibition at 1500 g/ha ([4]; 4 WAT) was 100% and the inhibition at 1500 g/ha ([4]; 6 WAT) was 100%. For the same compound, the inhibition at 3000 g/ha ([4]; 2 WAT) was 100%, the inhibition at 3000 g/ha ([4]; 4 WAT) was 100% and the inhibition at 3000 g/ha ([4]; 6 WAT) was 100%. It also gave an inhibition at 375 g/ha ([5]; 2 WAT) of 77%, an inhibition at 375 g/ha ([5]; 4 WAT) of 73% and an inhibition at 375 g/ha ([5]; 6 WAT) of 50%. It also gave an inhibition at 750 g/ha ([5]; 2 WAT) of 62%, an inhibition at 750 g/ha ([5]; 4 WAT) of 53% and an inhibition at 750 g/ha ([5]; 6 WAT) of 25%. The inhibition at 1500 g/ha ([5]; 2 WAT) was 92%, the inhibition at 1500 g/ha ([5]; 4 WAT) was 83% and the inhibition at 1500 g/ha ([5]; 6 WAT) was 73%. The inhibition at 3000 g/ha ([5]; 2 WAT) was 95%, the inhibition at 3000 g/ha ([5]; 4 WAT) was 99% and the inhibition at 3000 g/ha ([5]; 6 WAT) was 100%. The inhibition at 375 g/ha ([6]; 2 WAT) was 42%, the inhibition at 375 g/ha ([6]; 4 WAT) was 8% and the inhibition at 375 g/ha ([6]; 6 WAT) was 5%. The inhibition at 750 g/ha ([6]; 2 WAT) was 43%, the inhibition at 750 g/ha ([6]; 4 WAT) was 12% and the inhibition at 750 g/ha ([6]; 6 WAT) was 8%. It also gave an inhibition at 1500 g/ha ([6]; 2 WAT) of 30%, an inhibition at 1500 g/ha ([6]; 4 WAT) of 8% and an inhibition at 1500 g/ha ([6]; 6 WAT) of 5%. The inhibition at 3000 g/ha ([6]; 2 WAT) was 47%, the inhibition at 3000 g/ha ([6]; 4 WAT) was 22% and the inhibition at 3000 g/ha ([6]; 6 WAT) was 18%. It also gave an inhibition at 375 g/ha ([7]; 3 WAT) of 100%, an inhibition at 375 g/ha ([7]; 5 WAT) of 98% and an inhibition at 375 g/ha ([7]; 7 WAT) of 97%. It also gave an inhibition at 750 g/ha ([7]; 3 WAT) of 93%, an inhibition at 750 g/ha ([7]; 5 WAT) of 93% and an inhibition at 750 g/ha ([7]; 7 WAT) of 95%. The inhibition at 1500 g/ha ([7]; 3 WAT) was 82%, the inhibition at 1500 g/ha ([7]; 5 WAT) was 100% and the inhibition at 1500 g/ha ([7]; 7 WAT) was 67%. For the same compound, the inhibition at 3000 g/ha ([7]; 3 WAT) was 100%, the inhibition at 3000 g/ha ([7]; 5 WAT) was 100% and the inhibition at 3000 g/ha ([7]; 7 WAT) was 100%. For the same compound, the “selectivity factor (GR15/GR85), CS in transplant rice” value ([7]; between 3 WAT and 7 WAT) was 16.
